Assay results reported in patent US11434270B2, “Protein for neutralizing programmed necrocytosis promotion antibody, and application of protein” (SHANGHAI JW INFLINHIX CO., LTD., priority 2015, dated 2022).
Residue numbers refer to the chain shown, from its start.

B1: QLQWLNRRANALLANGVELRDNQLVVPSEGLYLIYSQVLFKGQGCPSTHVLLTHTISRIAVSYQTKVNLLSAIKSPCQRE (protein)
chain: QLQWLNRRANALLANGVELRDNQLVVPSEGLYLIYSQVLFKGQGCPSTHVLLTHTISRIAVSYQTKVNLLSAIKSPCQRE
B2: QLQWLNRRANALLANGVELRDNQLVVPSEGLYLIYSQVLFKGQGCPSTHVLLTHTISRIAVFHQTKVNLLSAIKSPCQRE (protein)
chain: B1 chain with S62F, Y63H
B3: 244-12: cell necrosis-promoting monoclonal antibody binding TNF epitope QLVVPSE; light chain SEQ ID NO: 9, heavy chain SEQ ID NO: 10 (antibody, listed as Homo sapiens)
heavy: QIQLVQSGPELKKPGETVKISCKASGYTFTNYGMNWVKQAPGKGLKWMGWINTYTGEPTYADDFKGRFAFSLETSANTAYLQINNLRNEGMATYFCARHYRYAWFPYWGQGTLVTVSAAKTTPPSVYPLAPGCGDTTGSSVTLGCLVKGYFPESVTVTWNSGSLSSSVHTFPALLQSGLYTMSSSVTVPSSTWPSQTVTCSVAHPASSTTVDKKLEPSGPISTINPCPPCKECHKCPAPNLEGGPSVFIFPPNIKDVLMISLTPKVTCVVVDVSEDDPDVQISWFVNNVEVHTAQTQTHREDYNSTIRVVSTLPIQHQDWMSGKEFKCKVNNKDLPSPIERTISKIKGLVRAPQVYILPPPAEQLSRKDVSLTCLVVGFNPGDISVEWASNGHTEENYKDTAPVLDSDGSYFIYSKLNMKTSKWEKTDSFSCNVRHEGLKNYYLKKTISRSPGK
light: DIQMTQSPASLSASVGETVTITCRASGNIHIYLAWYQQKQGKSPQLLVYNAKTLADGVPSRFSGSGSGTQYSLKINSLQPEDFGSYYCQHFWSIPWTFGGGTKLEIKRADAAPTVSIFPPSSEQLTSGGASVVCFLNNFYPKDINVKWKIDGSERQNGVLNSWTDQDSKDSTYSMSSTLTLTKDEYERHNSYTCEATHKTSTSPIVKSFNRNEC

Columns and labels:
[1] = tested on: cell necrosis caused by cell necrosis-promoting antibody; assay: Inhibition of cell necrosis caused by cell necrosis-promoting antibody; assay type: cell-based
Method: (§1) In the presence of TNF or TNF peptide with or without 20 μM z-VAD-FMK (R & D Systems, Minneapolis, Minn.) or 20 μM Necrotatin-1 (PeproTech, Rocky Hill, N.J.) (Immunotools, Friesoythe, Germany), cells were incubated overnight (or the time shown in the incubation diagram). In some experiments, TNF was co-cultured with cells and the monoclonal antibody with indicated concentration or synovial fluid. Cells were stained using live/dead cell staining kit (Invitrogen, Paisley, UK) according to the manufacturer's manual and fixed using a cytofix/cytoperm fixation/permeabilization solution kit (BD Pharmingen, Oxford, UK). Intracellular staining was then performed using FITC-conjugated anti-caspase-3 antibody (Cell Signaling Technology, Danvers, Mass., USA). Cells were harvested by CyAn flow cytometer (Beckman Coulter, Fullerton, Calif.), and data were analysed by Flowjo (Tree Star Inc. Ashland, Oreg.).

cells [2] = assay: Apoptosis and necrosis test, cell line not stated; assay type: cell-based; conditions: summary table
Method: as §1

[3] = tested on: monoclonal antibody 244-12; assay: Competitive inhibition ELISA of TNF binding to monoclonal antibody 244-12; conditions: plates coated with TNF, peptide added, then 244-12
Method: (§2) ELISA plates were coated with 2 μg/ml of TNF at 4° C. overnight, or at 37° C. for 2 hours, and then incubated with a monoclonal antibodies at 37° C. for 1 hour. A second antibody conjugated to HRP was used to detect the reaction. For the inhibition assay, TNFR1 or synovial fluid was added together with the monoclonal antibody.
METHODS: plates were coated with TNF, and the indicated peptides were added to each well, and then the monoclonal antibody 244-12 was added.

cells [4] = assay: Stimulation of cell proliferation; assay type: cell-based; conditions: summary table
[5] = tested on: cell necrosis-promoting antibody (244-12); assay: ELISA binding of polypeptide to cell necrosis-promoting antibody; conditions: for binding to cell necrosis-promoting antibodies: summary table
Method: (§3) However, the reaction with synovial fluid of a control patient without autoantibodies (SF010) was negative. ELISA plates were coated with 2 μg/ml of P11-17, blocked with BSA, incubated with 244-12, SF024, SF045, SF010 at room temperature for 1 hour, and then identified with horseradish peroxidase […] anti-mouse or human IgG secondary antibody.

L929 cells = assay: Apoptosis and necrosis test (live/dead staining, active caspase-3, flow cytometry) in L929 cells; assay type: cell-based, mouse
Method: as §1

[6] = tested on: cell necrosis-promoting antibodies present in joint fluid of arthritis patients; assay: ELISA binding of polypeptide to autoantibodies in synovial fluid of arthritis patients; set-up: species or system human; conditions: plate coated with 2 μg/ml of P11-17
Method: as §3

[7] = tested on: C2812 cells (chondrocytes); assay: Apoptosis test (active caspase-3) in C2812 chondrocytes; assay type: cell-based, human; conditions: antibody added to TNF
Method: as §1

TNF receptors = assay: L929 cell immunofluorescence microscopy: TNF/antibody binding to cell surface TNF receptors; assay type: cell-based, mouse
Method: At room temperature, 20 ng/ml of TNF and 2 μg/ml of mAb M26 or 244-12 were incubated for 1 hour. The mixture of TNF/M26 or TNF/244-12 were incubated on ice with L929 cells grown on coverslip for an another 15 minutes. The cells were fixed with 4% paraformaldehyde (PBS formulation) were for 10 minutes, blocked with phosphate buffer containing 0.5% BSA and 0.1% cold water fish gelatin for 15 minutes, and then incubated with rabbit anti-TNFR1 antibody (Abeam) for 1 hour. The cells were washed with PBS and then incubated with the relevant secondary antibody coupled to Alexa Fluor 488 or Alexa Fluor 568 (Invitrogen). Then the sample washed with PBS was mounted with Gelvatol/DABCO (Sigma-Aldrich). DNA was counterstained with DAPI (Sigma-Aldrich). All samples were analyzed by fluorescence microscopy at 60× using Nikon Eclipse 80i. Images were taken with NIS-Elements AR3.0 software using Hamamatsu camera.

TNF = target: T1, TNF (Homo sapiens, UniProt P01375); assay: ELISA screening of monoclonal antibodies for binding to TNF; conditions: screening of 33 monoclonal antibodies
T1 construct: purchased Immunotools
Method: as §2

T1 sequence (P01375 whole entry): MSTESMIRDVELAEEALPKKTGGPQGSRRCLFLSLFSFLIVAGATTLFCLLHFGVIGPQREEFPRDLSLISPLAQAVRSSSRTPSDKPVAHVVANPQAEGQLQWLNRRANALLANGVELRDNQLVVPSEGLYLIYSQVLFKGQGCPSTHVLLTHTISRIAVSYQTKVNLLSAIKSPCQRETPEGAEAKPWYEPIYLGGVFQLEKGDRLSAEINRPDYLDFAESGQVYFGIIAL

Molecule | Inhibition of cell necrosis ([1]; summary table) | Apoptosis (cells [2]) | Necrosis (cells [2]) | competitive inhibition of binding of TNF to mAb 244-12 [3] | Stimulation of cell proliferation (cells [4]) | binding to cell necrosis-promoting antibodies [5] | other results
NQLVVPSEGL [P13-2] | Yes | no | no | significantly inhibited | no | Yes | –
RDNQLVVPSE [P12-10] | Yes | no | no | significantly inhibited | no | Yes | –
QLVVPSEGLY [P13-3] | Yes | no | no | significantly inhibited | no | Yes | –
CN1C(=O)C(Cc2c[nH]c3ccccc23)NC1=S (stereo not drawn) [Nec-1, Necrotatin-1, reference compound] | – | – | – | – | – | – | necrosis induced by antibody 244-12 + TNF (L929 cells; Nec-1 added to 244-12+TNF, necrosis converted into apoptosis): can be inhibited
Tumor necrosis factor α [TNFα] | no | Yes | Yes | – | Yes | Yes | cell fate of L929 cells (L929 cells; TNF alone): apoptosis
DNQLVVPSEG [P13-1] | Yes | no | no | significantly inhibited | no | Yes | –
B1 | Yes | no | no | – | no | Yes | Inhibition of cell necrosis ([1]; necrosis caused by purified 244-12 or by antibody in patients' synovial fluid (SF002, SF045)): can effectively inhibit cell necrosis; reaction with synovial fluid of a control patient without autoantibodies ([6]; sample SF010): negative; binding to cell necrosis-promoting antibodies in joint fluid of arthritis patients ([6]; samples SF024, SF045): bind; binding to purified cell necrosis-promoting antibody (244-12) ([5]; ELISA plate coated with 2 μg/ml of P11-17): can bind
B2 | Yes | no | no | – | no | Yes | –
B3 | – | – | – | – | – | – | TNF-induced apoptosis (expression of active caspase-3) [7]: blocked; TNF-induced apoptosis (expression of active caspase-3) (L929 cells; L929 cells, antibody added to TNF): blocked; cell fate of L929 cells (L929 cells; antibody added together with TNF): necrosis; direct binding of antibody to cell surface (TNF receptors; absence of TNF): cannot directly bind to cell surface; effect of antibody binding to TNF on binding of TNF to TNF receptors (TNF receptors; confocal micrograph, L929 cells, TNF present): did not affect; binding to TNF by ELISA test (TNF): strongest
